Measured values as given in PMC8632988, “Inhibition of SYK and cSrc kinases can protect bone and cartilage in preclinical models of osteoarthritis and rheumatoid arthritis” (Scientific Reports, 2021).
Several values for one entry are separate records, joined by “and”; a condition that tells them apart may be missing. Equal entries are not always repeated. Where two headings read alike, the source gives them in different places.

Assay: Tissue distribution after single oral administration in rats
Format: in vivo, rat
Conditions: for Bone concentration / Joint concentration / Kidney concentration / Liver concentration / concentration at 2 h / concentration at 8 h / concentration at 24 h / Muscle concentration / Prostate concentration: 100 mg/kg PO, male Wistar rats, 100 mg/kg; for concentration at 2 h / concentration at 8 h / concentration at 24 h: po
Description: Experiments were performed at ChemPartner, Shanghai, China and approved by Institutional Ethics Committee (IEC) of ChemPartner. Male Wistar 10–12 weeks old rats with body weights of 185–220 g and male New Zealand rabbits with body weights of 2.0–2.3 kg were purchased from Shanghai SLAC Laboratory Animal Co., Ltd. MT-SYK-03 was administered to the three groups of rats (six rats per group) via oral gavage at 10 mL/kg concentration, and in rabbits 5 mL/kg concentration. Blood samples were kept on ice and centrifuged (2000 g, 4 ℃, 5 min) within 15 min post sampling.

## COc1cc(Nc2ncnc(Nc3cc4c(cn3)NC(=O)C(C)(C)O4)n2)cc(OC)c1OC [MT-SYK-03]
bone, 2 h, individual animals
  Bone concentration: 433 ng/mL and 576 ng/mL
bone, 8 h, individual animals
  Bone concentration: 1290 ng/mL and 681 ng/mL and 153 ng/mL
bone, 24 h, individual animals
  Bone concentration: 8.28 ng/mL and 19.9 ng/mL and 14.5 ng/mL
joint, 2 h, individual animals
  Joint concentration: 584 ng/mL and 631 ng/mL
joint, 8 h, individual animals
  Joint concentration: 1100 ng/mL and 673 ng/mL and 216 ng/mL
joint, 24 h, individual animals
  Joint concentration: 12.2 ng/mL and 20.4 ng/mL and 8.49 ng/mL
kidney, 2 h, individual animals
  Kidney concentration: 2880 ng/mL and 3160 ng/mL
kidney, 8 h, individual animals
  Kidney concentration: 1200 ng/mL and 375 ng/mL and 260 ng/mL
kidney, 24 h, individual animals
  Kidney concentration: 5.30 ng/mL and 72.0 ng/mL and 8.51 ng/mL
liver, 2 h, individual animals
  Liver concentration: 4700 ng/mL and 6610 ng/mL
liver, 8 h, individual animals
  Liver concentration: 1860 ng/mL and 635 ng/mL and 442 ng/mL
liver, 24 h, individual animals
  Liver concentration: 7.95 ng/mL and 115 ng/mL and 12.8 ng/mL
male, Wistar, rat, bone and cartilage tissues, rats, single oral administration, read-out: Exposure in bone and cartilage tissues relative to plasma
  Kp: 3
male, Wistar, rat, bone, bone, 2 h, individual animals, read-out: Bone concentration
  concentration at 2 h: 327 ng/mL
male, Wistar, rat, bone, bone, 2 h, mean, read-out: Bone concentration, Mean
  concentration at 2 h: 445 ng/mL
male, Wistar, rat, bone, bone, 8 h, mean, read-out: Bone concentration, Mean
  concentration at 8 h: 708 ng/mL
male, Wistar, rat, bone, bone, 24 h, mean, read-out: Bone concentration, Mean
  concentration at 24 h: 14.2 ng/mL
male, Wistar, rat, joint, joint, 2 h, individual animals, read-out: Joint concentration
  concentration at 2 h: 470 ng/mL
male, Wistar, rat, joint, joint, 2 h, mean, read-out: Joint concentration, Mean
  concentration at 2 h: 562 ng/mL
male, Wistar, rat, joint, joint, 8 h, mean, read-out: Joint concentration, Mean
  concentration at 8 h: 663 ng/mL
male, Wistar, rat, joint, joint, 24 h, mean, read-out: Joint concentration, Mean
  concentration at 24 h: 13.7 ng/mL
male, Wistar, rat, kidney, kidney, 2 h, individual animals, read-out: Kidney concentration
  concentration at 2 h: 2350 ng/mL
male, Wistar, rat, kidney, kidney, 2 h, mean, read-out: Kidney concentration, Mean
  concentration at 2 h: 2800 ng/mL
male, Wistar, rat, kidney, kidney, 8 h, mean, read-out: Kidney concentration, Mean
  concentration at 8 h: 612 ng/mL
male, Wistar, rat, kidney, kidney, 24 h, mean, read-out: Kidney concentration, Mean
  concentration at 24 h: 28.6 ng/mL
male, Wistar, rat, liver, liver, 2 h, individual animals, read-out: Liver concentration
  concentration at 2 h: 4450 ng/mL
male, Wistar, rat, liver, liver, 2 h, mean, read-out: Liver concentration, Mean
  concentration at 2 h: 5250 ng/mL
male, Wistar, rat, liver, liver, 8 h, mean, read-out: Liver concentration, Mean
  concentration at 8 h: 979 ng/mL
male, Wistar, rat, liver, liver, 24 h, mean, read-out: Liver concentration, Mean
  concentration at 24 h: 45.3 ng/mL
male, Wistar, rat, muscle, muscle, 2 h, individual animals, read-out: Muscle concentration
  concentration at 2 h: 456 ng/mL
male, Wistar, rat, muscle, muscle, 2 h, mean, read-out: Muscle concentration, Mean
  concentration at 2 h: 436 ng/mL
male, Wistar, rat, muscle, muscle, 8 h, individual animals, read-out: Muscle concentration
  concentration at 8 h: 160 ng/mL
male, Wistar, rat, muscle, muscle, 8 h, mean, read-out: Muscle concentration, Mean
  concentration at 8 h: 120 ng/mL
male, Wistar, rat, muscle, muscle, 24 h, individual animals, read-out: Muscle concentration
  concentration at 24 h: 4.68 ng/mL
male, Wistar, rat, muscle, muscle, 24 h, mean, read-out: Muscle concentration, Mean
  concentration at 24 h: 6.8 ng/mL
male, Wistar, rat, prostate, prostate, 2 h, individual animals, read-out: Prostate concentration
  concentration at 2 h: 1070 ng/mL
male, Wistar, rat, prostate, prostate, 2 h, mean, read-out: Prostate concentration, Mean
  concentration at 2 h: 1260 ng/mL
male, Wistar, rat, prostate, prostate, 8 h, mean, read-out: Prostate concentration, Mean
  concentration at 8 h: 251 ng/mL
male, Wistar, rat, prostate, prostate, 24 h, individual animals, read-out: Prostate concentration
  concentration at 24 h: 21.6 ng/mL
male, Wistar, rat, prostate, prostate, 24 h, mean, read-out: Prostate concentration, Mean
  concentration at 24 h: 21.6 ng/mL
male, Wistar, rat, spleen, spleen, 2 h, individual animals, read-out: Spleen concentration
  concentration at 2 h: 2060 ng/mL
male, Wistar, rat, spleen, spleen, 2 h, mean, read-out: Spleen concentration, Mean
  concentration at 2 h: 1910 ng/mL
male, Wistar, rat, spleen, spleen, 8 h, mean, read-out: Spleen concentration, Mean
  concentration at 8 h: 374 ng/mL
male, Wistar, rat, spleen, spleen, 24 h, individual animals, read-out: Spleen concentration
  concentration at 24 h: 30.3 ng/mL
male, Wistar, rat, spleen, spleen, 24 h, mean, read-out: Spleen concentration, Mean
  concentration at 24 h: 30.3 ng/mL
muscle, 2 h, individual animals
  Muscle concentration: 435 ng/mL and 416 ng/mL
muscle, 8 h, individual animals
  Muscle concentration: 107 ng/mL and 93.2 ng/mL
muscle, 24 h, individual animals
  Muscle concentration: 8.92 ng/mL and BQL
prostate, 2 h, individual animals
  Prostate concentration: 1200 ng/mL and 1500 ng/mL
prostate, 8 h, individual animals
  Prostate concentration: 500 ng/mL and 154 ng/mL and 98.0 ng/mL
